The values below come from patent US20040242524A1, “Chemotherapeutic composition and method” (priority 1998, published 2004).

Values after ≈ are worked out from the molar mass of the structure shown. Values joined by “and” are separate entries in the source; they are usually repeats but may differ in a detail not shown here. Identical values can stand only once. Like-named read-outs stand apart in the source and are kept apart here.

Assay [1] deals with B-16 melanoma cells. The assay can be described thus: Inhibition of B-16 melanoma cell proliferation by chemotherapeutic agents ± MCC (MTT reduction). Format: cell-based, murine. The conditions noted are these: for inhibited proliferation: 72 h, MTT; for IC50: B16. The procedure: B-16 melanoma cells, at 3×10^5 cells/ml, were incubated for 72 h with the chemotherapeutic agents mitomycin-C, 5-fluorouracil and cisplatin in the absence and in the presence of MCC. Cell proliferation was determined using dimethylthiazol-diphenyltetrazolium bromide (MTT) reduction (Mosman et al. Journal of Immunological Methods 65:55-63, 1983). After 72 h, 20 μl of MTT in culture medium was added to each well and incubated for 3 h. Medium was then aspirated from each well, 100 μl of acidified isopropyl alcohol was added to each sample and reduced MTT was solubilized by mixing. The absorbency of the reaction product was determined using an ELISA microplate reader at a wavelength of 570 nm.
B-16 melanoma cells were incubated with 0.01 to 100 μg/ml of mitomycin-C, with 1 to 100 μg/ml of MCC and with 0.01 to 10 μg/ml of mitomycin-C+1 μg/ml MCC. Mitomycin-C is an anti-tumor antibiotic produced by Streptomyces caespitosus, which cross-links DNA, depolymerizes DNA and forms free radicals.
B-16 melanoma cells were incubated with 0.01 to 100 μg/ml of 5-fluorouracil, with 1 to 100 μg/ml of MCC and with 0.01 to 10 μg/ml of 5-fluorouracil+1 μg/ml MCC. 5-fluorouracil is an antimetabolite, which interferes with DNA and RNA synthesis.
B-16 melanoma cells were incubated with 0.01 to 100 μg/ml of cisplatin, with 1 to 100 μg/ml of MCC and with 0.01 to 10 μg/ml of cisplatin+1 μg/ml MCC. Cisplatin is an alkylating agent that cross-links DNA and inhibits DNA precursors.
(Formazan colour is commonly taken as a measure of viable cells.)

The test system of assay [2] is B-16 melanoma tumors. The assay can be described thus: Effects of M-DNA and MCC in combination with mitomycin-C on B-16 melanoma tumors in mice. Format: in vivo. The settings on record: nude BALB/c mice, subcutaneous B-16, after 4 weeks of treatment; Group 1 saline, Group 4 mitomycin-C. The procedure:
B-16 melanoma cells are implanted subcutaneously into 30 male nude BALB/c mice and allowed to grow for 10 days. The mice are divided into 6 groups and tumor mass is measured in each mouse. On day 0, Group 1 mice receive saline, Group 2 mice receive M-DNA, Group 3 mice receive MCC, Group 4 mice receive mitomycin-C, Group 5 mice receive M-DNA and mitomycin-C and Group 6 mice receive MCC and mitomycin-C. After 4 weeks of treatment, the mice are sacrificed and the tumor mass and number of metastases are determined. Group 1 mice have the most tumor mass.

The subject of assay [3] is Jurkat T cell leukemia cells. The assay can be described thus: Cell cycle analysis, synchronously dividing (MTX) Jurkat cells. Type of assay: cell-based, human. The conditions noted are these: MTX alone (0.08 μM). The procedure: (§1) Cell cycle stage was determined using a CYCLETEST™ PLUS DNA commercial kit (Becton Dickinson, San Jose, Calif., USA). Briefly, nuclei from treated cells were obtained by dissolving the cell membrane in a nonionic detergent, eliminating the cell cytoskeleton and nuclear proteins with trypsin, digesting the cellular RNA with RNase, and stabilizing the nuclear chromatin with spermine. Propidium iodide was added to the cell nuclei and their fluorescence was analyzed in a flow cytometer equipped with electronic doublet discrimination capability (FACSCalibur, Becton Dickinson). Accumulation of cells in GO/G1, S (SE, SM, SL) or G2/M phases of the cell cycle was analyzed using MODFIT LT software (Verity Software House Inc., Topsham, Mass., USA). Results are expressed as percentage of cells in each phase of the cell cycle.
(§2) To synchronize cell populations, exponentially growing cells were incubated in tissue culture medium containing 0.04 to 0.16 μM methotrexate (MTX) for 20 hours. The MTX medium was removed, cells were washed extensively with phosphate buffered saline (PBS), fresh medium was added, incubation was continued for 8 hours and cell cycle analysis was performed as in Example 4.
(§3) Exponentially growing Jurkat, HL-60, HL-60MX1 and EL-4 cells, at 1×10^6 cells/ml, and B-16 cells, at 3×10^5 cells/ml, were prepared for analysis as in Example 5 with 0, 10 and 100 μg/ml of MCC in the MTX medium.
Exponentially growing Jurkat leukemia cells, at 1×10^6 cells/ml, were prepared for analysis as in Example 5 with 0 and 10 μg/ml of MCC and 10 μg/ml DNase I-treated MCC in the MTX medium.

Assay [4] deals with EL-4 lymphoma cells. The assay can be described thus: Cell cycle analysis, synchronously dividing (MTX) EL-4 cells. Format: cell-based, murine. The conditions noted are these: MTX alone (0.16 μM). The procedure: as §1, §2, §3
The test system of assay [5] is B-16 melanoma cells. The assay can be described thus: Cell cycle analysis, synchronously dividing (MTX) B-16 cells. Format: cell-based, murine. The settings on record: MTX alone. The procedure: as §1, §2, §3
The test system of assay [6] is promyelocytic HL60 leukemia cells (HL-60). The assay can be described thus: Cell cycle analysis, synchronously dividing (MTX) HL-60 cells. Type of assay: cell-based, human. The conditions noted are these: MTX alone (0.04 μM). The procedure:
as §1, §2, §3

For assay [7], the system named is mitoxantrone resistant promyelocytic HL-60MX1 leukemia cells. In words: Cell cycle analysis, synchronously dividing (MTX) HL-60MX1 cells. The conditions noted are these: MTX alone (0.04 μM). Format: cell-based, human. The procedure: as §1, §2, §3
The mark [8] stands for this setting: 0.1 μg/ml, in the presence of 1 μg/ml MCC.
Setting [9] is: 1 μg/ml, in the presence of 1 μg/ml MCC.

Regarding `CO[C@@]12[C@H](COC(N)=O)C3=C(C(=O)C(C)=C(N)C3=O)N1C[C@@H]1N[C@@H]12` [mitomycin-C], the inhibited proliferation entry in assay [1] (0.1 μg/ml, agent alone) is recorded as “about 5%”; in assay [1] (setting [8]) it was “about 40%”; in assay [1] (1 μg/ml, agent alone), “about 10%”; in assay [1] (setting [9]), “about 65%”; in assay [1] (10 μg/ml, agent alone), 100%; in assay [1] (100 μg/ml, agent alone), 100%. Also, the inhibited proliferation in assay [1] (100 μg/ml, in the presence of 1 μg/ml MCC) was determined as 100%. The “IC50 (concentration for 50% inhibition of B-16 melanoma cell proliferation), Drug + MCC at 1 μg/ml” value in assay [1] was found to be 0.12 µg/mL. In addition, the “IC50 (concentration for 50% inhibition of B-16 melanoma cell proliferation), Drug Alone” value in assay [1] is 2.2 µg/mL. In addition, in assay [2], the tumor mass result is given as “less tumor mass than Group 1 mice”.

Regarding `CN(Cc1cnc2nc(N)nc(N)c2n1)c1ccc(C(=O)N[C@@H](CCC(=O)O)C(=O)O)cc1` [MTX, methotrexate], the “PERCENTAGE OF CELLS IN EACH PHASE: G0G1 + SE” value in assay [3] was 44.6% and 43.0%; in assay [4], 18.3%; in assay [5], 48.3%; in assay [6] it was 50.3%; in assay [7] it was 46.1%. Further, the “PERCENTAGE OF CELLS IN EACH PHASE: SL + G2M” value was 30.1% and 31.4% in assay [3]; 63.3% in assay [4]; 46.3% in assay [5]; 25.5% in assay [6]; 18.4% in assay [7]. Besides, the “PERCENTAGE OF CELLS IN EACH PHASE: SM” value in assay [3] was 25.3% and 25.6%; in assay [4] it was 18.4%; in assay [5], 5.4%; in assay [6], 24.2%; in assay [7], 35.5%.

Turning to `O=c1[nH]cc(F)c(=O)[nH]1` [5-fluorouracil], the inhibition at 0.01 µg/mL is around 8% in assay [1] (Mus musculus, B16, 72 h, read-out: inhibited proliferation, 0.01 μg/ml, agent alone, 72 h, MTT) and around 75% in assay [1] (Mus musculus, B16, 72 h, read-out: inhibited proliferation, 0.01 μg/ml, in the presence of 1 μg/ml MCC, 72 h, MTT). Moreover, the inhibition at 0.1 µg/mL in assay [1] (Mus musculus, B16, 72 h, read-out: inhibited proliferation, 0.1 μg/ml, agent alone, 72 h, MTT) was around 50%; in assay [1] (Mus musculus, B16, 72 h, read-out: inhibited proliferation, 0.1 μg/ml, in the presence of 1 μg/ml MCC, 72 h, MTT) it was around 85%. The inhibition at 1 µg/mL in assay [1] (Mus musculus, B16, 72 h, read-out: inhibited proliferation, 1 μg/ml, agent alone, 72 h, MTT) is around 90%; in assay [1] (Mus musculus, B16, 72 h, read-out: inhibited proliferation, 1 μg/ml, in the presence of 1 μg/ml MCC, 72 h, MTT), around 90%. Further, the inhibition at 10 µg/mL was found to be 100% in assay [1] (Mus musculus, B16, 72 h, read-out: inhibited proliferation, 10 μg/ml, agent alone, 72 h, MTT) and 100% in assay [1] (Mus musculus, B16, 72 h, read-out: inhibited proliferation, 10 μg/ml, in the presence of 1 μg/ml MCC, 72 h, MTT). Also, in assay [1] (Mus musculus, B16, 72 h, read-out: inhibited proliferation, 100 μg/ml, agent alone, 72 h, MTT), the inhibition at 100 µg/mL stood at 100%. In addition, the IC50 in assay [1] (Mus musculus, read-out: IC50 (concentration for 50% inhibition of B-16 melanoma cell proliferation), Drug + MCC at 1 μg/ml) turned out to be 0.005 µg/mL; in assay [1] (Mus musculus, read-out: IC50 (concentration for 50% inhibition of B-16 melanoma cell proliferation), Drug Alone) it was 0.12 µg/mL (≈ 0.923 µM).

On to `N.N.[Cl][Pt][Cl]` [cisplatin], for which the inhibited proliferation in assay [1] (0.01 μg/ml, agent alone) was 0%; in assay [1] (0.01 μg/ml, in the presence of 1 μg/ml MCC) it was “about 40%”; in assay [1] (0.1 μg/ml, agent alone), “about 8%”; in assay [1] (setting [8]), “about 50%”; in assay [1] (1 μg/ml, agent alone) it was “about 62%”; in assay [1] (setting [9]), “about 70%”. Besides, the inhibited proliferation entry in assay [1] (10 μg/ml, agent alone) was “about 90%”; in assay [1] (10 μg/ml, in the presence of 1 μg/ml MCC), “about 90%”; in assay [1] (100 μg/ml, agent alone) it was 100%. Besides, in assay [1], the “IC50 (concentration for 50% inhibition of B-16 melanoma cell proliferation), Drug + MCC at 1 μg/ml” value is 0.16 µg/mL. Moreover, the “IC50 (concentration for 50% inhibition of B-16 melanoma cell proliferation), Drug Alone” value in assay [1] turned out to be 0.6 µg/mL.
